- melting point: 138.5 °C
SMILES: CCCCCCCC/C=C/CCc1cc(O)c(O)cc1O [Eriopodol C, (E)-5-(dodec-3′-enyl)benzene-1,2,4-triol]
